# Data taken from patent publication US4582821A, “Inhibition of cyclic nucleotide independent protein kinases” (E. I. Du Pont de Nemours and Company, priority 1983, dated 1986).
# Key:
# [1] = tested on: lymphoma cell line YAC-1; assay: Tumor cell line growth inhibition, YAC-1; type: cell-based
# Description: (§1) In this series of experiments, the tumor cell growth inhibitory capacity of various peptide halomethyl ketones was tested against lymphoma cell lines YAC-1 and MOLT-4, and against an erythroleukemia cell line, K-562. The lymphoma cell line YAC-1 is described by Kiessling, et al., Eur. J. Immunol. 5:112 (1975), and MOLT-4 is described by Minowada, et al., J. Natl. Cancer Inst. 49:891 (1972) and Nilsson, et al., Int. J. Cancer 15:321 (1975). The erythroleukemia cell line K-562 is described by Lozzio, et al., Leuk. Res. 3:363 (1979). In these experiments, cells were grown on standard media as 10 mL suspension cultures. Initial cell density was 10^5 cells/mL. At day 0, test compounds were introduced in ethanol; control cultures received an equal volume of ethanol. Cells were counted at the times indicated.
# [2] = target: T1, p130^fps (UniProt P00530+P03323); assay: Immune complex phosphorylation by p130fps immunoprecipitates of FSV-transformed cells; type: biochemical, Fujinami sarcoma virus (FSV); conditions: for Activity (cpm), FSV: anti-gag immunoprecipitates, no inhibitor 27036; for Activity (cpm), Control: extracts immunoprecipitated with normal serum, no inhibitor 2624
# T1 construct: anti-gag serum and Staphylococcus protein A suspension (for FSV-transformed cells); viral gag-derived N-terminal portion (natural gag-fps fusion); expressed in transfected cells; immune complex with anti-gag serum and Staphylococcus protein A
# Description: (§2) In this experiment, Boc-LeuCH2 Br was tested as an inhibitor of pp60^src and p130^fps, the tyrosine-specific protein kinases encoded by the transforming genes of RSV and Fujinami sarcoma virus, respectively.
# (§3) These viral gene products were partially purified by preparation of immune complexes substantially according to the technique described by Collett et al., Proc. Nat. Acad. Sci. USA 75:2021 (1978). In this procedure, immunoprecipitates are prepared by incubation of extracts of virus-transformed cells with tumor-bearing rabbit serum (TBR) and Staphylococcus protein A suspension (for RSV-transformed cells) or anti-gag serum and Staphylococcus protein A suspension (for FSV-transformed cells).
# Assay mixtures contained, in a final volume of 70 μL, 100 μg of immune complex protein, 20 mM Hepes, pH 7.4, and 1 mM MnCl2. Phosphorylation was initiated by addition of 1 μM (4 μCi) [γ-^32 P] ATP. After 10 minutes at about 23°, reactions were terminated by pipetting 20 μL aliquots of assay mixture onto 2×2 cm squares of Whatman 3 MM filter paper, which were immediately suspended in 10% TCA/10 mM sodium pyrophosphate. […] Controls for the immunoprecipitation procedure were prepared by immunoprecipitating transformed cell extracts with normal serum. Values in parentheses represent specific phosphorylation induced by virus-transformed cells.
# In a related experiment, the capacity of Boc-LeuCH2 Br to inhibit phosphorylation of casein by p130^fps was determined. These tests were conducted substantially as described above, except 1 mg/mL casein was added to assay mixtures as a substrate, and reactions were terminated by addition of 2.5 mM unlabeled ATP and immediate cooling to 0°. Phosphorylated casein was separated from immunoprecipitate suspensions by centrifugation at 3,000 xg for 3 minutes. The resulting pellets were resuspended in 70 μL of 10 mM Hepes, pH 7.5, and 20 μL aliquots were pipetted onto filter paper squares as previously described.
# This experiment was conducted substantially according to the procedures described in Example 17, above. In Table 5, "FSV" refers to immunoprecipitates of FSV-transformed cell extracts prepared by addition of anti-gag serum; controls were extracts immunoprecipitated with normal serum.
# [3] = tested on: erythroleukemia cell line K-562; assay: Tumor cell line growth inhibition, K-562; type: cell-based
# Description: as §1
# [4] = tested on: pp60^src; assay: Immune complex phosphorylation by pp60src immunoprecipitates of RSV-transformed cells; type: biochemical, Rous sarcoma virus (RSV); conditions: 250 nmoles per mg protein
# Description: as §2, §3
# Assay mixtures contained, in a final volume of 70 μL, 100 μg of immune complex protein, 20 mM Hepes, pH 7.4, and 1 mM MnCl2. Phosphorylation was initiated by addition of 1 μM (4 μCi) [γ-^32 P] ATP. After 10 minutes at about 23°, reactions were terminated by pipetting 20 μL aliquots of assay mixture onto 2×2 cm squares of Whatman 3 MM filter paper, which were immediately suspended in 10% TCA/10 mM sodium pyrophosphate. Test mixtures contained 250 nmoles Boc-LeuCH2 Br per mg protein. Controls for the immunoprecipitation procedure were prepared by immunoprecipitating transformed cell extracts with normal serum. Values in parentheses represent specific phosphorylation induced by virus-transformed cells.
# [5] = tested on: lymphoma cell line MOLT-4; assay: Tumor cell line growth inhibition, MOLT-4; type: cell-based
# Description: as §1
compound,measurement,setting,value
CC(C)CC(NC(=O)OC(C)(C)C)C(=O)CBr (stereo not shown) [Boc-LeuCH2 Br],% Growth Relative to Control Cultures,"[1]; 0.4 μg/mL, day 4",97%
same,% Growth Relative to Control Cultures,"[1]; 2.0 μg/mL, day 1",42%
same,% Growth Relative to Control Cultures,"[1]; 2.0 μg/mL, day 2",31%
same,% Growth Relative to Control Cultures,"[1]; 2.0 μg/mL, day 3",28%
same,% Growth Relative to Control Cultures,"[1]; 2.0 μg/mL, day 4",12%
same,% Growth Relative to Control Cultures,"[1]; 2.0 μg/mL, day 7",28%
same,% Growth Relative to Control Cultures,"[1]; 10. μg/mL, day 1",67%
same,% Growth Relative to Control Cultures,"[1]; 10. μg/mL, day 2",32%
same,% Growth Relative to Control Cultures,"[1]; 10. μg/mL, day 3",22%
same,% Growth Relative to Control Cultures,"[1]; 10. μg/mL, day 4",13%
same,% Growth Relative to Control Cultures,"[1]; 10. μg/mL, day 7",16%
same,% inhibition,[2]; 250 nmoles/mg protein,48%
same,"Activity (cpm), FSV",[2]; 250 nmoles/mg protein,13932 cpm
same,"Activity (cpm), Control",[2]; 250 nmoles/mg protein,2370 cpm
same,% inhibition,[2]; 500 nmoles/mg protein,69%
same,"Activity (cpm), FSV",[2]; 500 nmoles/mg protein,8344 cpm
same,"Activity (cpm), Control",[2]; 500 nmoles/mg protein,2180 cpm
same,"Immune Complex Phosphorylation, specific phosphorylation (in parentheses)","[2]; p130fps + anti-gag serum, 250 nmoles per mg protein, no inhibitor 20104",6324 cpm
same,Immune Complex Phosphorylation,"[2]; p130fps + anti-gag serum, 250 nmoles per mg protein, no inhibitor 29244",15222 cpm
same,Immune Complex Phosphorylation,"[2]; p130fps + control serum, 250 nmoles per mg protein, no inhibitor 9140",8898 cpm
same,Immune Complex Phosphorylation,"[2]; related experiment with 1 mg/mL casein, p130fps + anti-gag serum, no inhibitor 7663",1656 cpm
same,Immune Complex Phosphorylation,"[2]; related experiment with 1 mg/mL casein, p130fps + control serum, no inhibitor 1184",1286 cpm
same,% Growth Relative to Control Cultures,"[3]; 0.4 μg/mL, day 3",70%
same,% Growth Relative to Control Cultures,"[3]; 0.4 μg/mL, day 7",85%
same,% Growth Relative to Control Cultures,"[3]; 2.0 μg/mL, day 1",53%
same,% Growth Relative to Control Cultures,"[3]; 2.0 μg/mL, day 2",22%
same,% Growth Relative to Control Cultures,"[3]; 2.0 μg/mL, day 3",19%
same,% Growth Relative to Control Cultures,"[3]; 2.0 μg/mL, day 4",16%
same,% Growth Relative to Control Cultures,"[3]; 2.0 μg/mL, day 7",69%
same,% Growth Relative to Control Cultures,"[3]; 10. μg/mL, day 1",33%
same,% Growth Relative to Control Cultures,"[3]; 10. μg/mL, day 2",22%
same,% Growth Relative to Control Cultures,"[3]; 10. μg/mL, day 3",7%
same,% Growth Relative to Control Cultures,"[3]; 10. μg/mL, day 4",17%
same,% Growth Relative to Control Cultures,"[3]; 10. μg/mL, day 7",13%
same,Immune Complex Phosphorylation,"[4]; pp60 + control serum, no inhibitor 7872",7516 cpm
same,"Immune Complex Phosphorylation, specific phosphorylation (in parentheses)","[4]; pp60src + TBR serum, no inhibitor 5112",3202 cpm
same,Immune Complex Phosphorylation,"[4]; pp60src + TBR serum, no inhibitor 12984",10718 cpm
same,% Growth Relative to Control Cultures,"[5]; 0.4 μg/mL, day 2",66%
same,% Growth Relative to Control Cultures,"[5]; 0.4 μg/mL, day 3",84%
same,% Growth Relative to Control Cultures,"[5]; 0.4 μg/mL, day 4",67%
same,% Growth Relative to Control Cultures,"[5]; 2.0 μg/mL, day 2",29%
same,% Growth Relative to Control Cultures,"[5]; 2.0 μg/mL, day 3",31%
same,% Growth Relative to Control Cultures,"[5]; 2.0 μg/mL, day 4",21%
same,% Growth Relative to Control Cultures,"[5]; 2.0 μg/mL, day 7",74%
same,% Growth Relative to Control Cultures,"[5]; 10. μg/mL, day 1",49%
same,% Growth Relative to Control Cultures,"[5]; 10. μg/mL, day 2",16%
same,% Growth Relative to Control Cultures,"[5]; 10. μg/mL, day 3",14%
same,% Growth Relative to Control Cultures,"[5]; 10. μg/mL, day 4",9%
same,% Growth Relative to Control Cultures,"[5]; 10. μg/mL, day 7",14%
